Reference: BindingDB's records for doi:10.1021/jm8011036 (Glaxosmithkline, 2008)

Target: Casein kinase I isoform alpha (Homo sapiens, UniProt P48729)
Assay: Binding affinity to human CK1alpha2

Sequence of Casein kinase I isoform alpha (P48729 whole entry, canonical isoform): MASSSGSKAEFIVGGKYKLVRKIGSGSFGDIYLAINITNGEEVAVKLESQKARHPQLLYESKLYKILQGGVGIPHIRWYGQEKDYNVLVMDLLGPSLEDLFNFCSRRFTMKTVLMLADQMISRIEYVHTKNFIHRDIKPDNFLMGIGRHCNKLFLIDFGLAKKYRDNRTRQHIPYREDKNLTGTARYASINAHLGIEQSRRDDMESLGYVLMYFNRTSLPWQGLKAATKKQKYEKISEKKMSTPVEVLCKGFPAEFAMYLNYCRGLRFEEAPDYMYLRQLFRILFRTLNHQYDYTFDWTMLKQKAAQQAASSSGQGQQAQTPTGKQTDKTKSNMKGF

Kd: 0.225 µM
Structure (SMILES): CC(=O)c1c(-c2ccncc2)[nH]c(-c2ccncc2)c1C [1-(4-methyl-2,5-di(pyridin-4-yl)-1H-pyrrol-3-yl)ethanone]
